From PMC8151276, “An Integrated Approach toward NanoBRET Tracers for Analysis of GPCR Ligand Engagement” (Molecules, 2021)
One block for each molecule: values may come before it.

What was measured:
Assay type in all cases: binding
[1] = molecular target: T1, P2RY2 (Homo sapiens, UniProt P41231); assay: NanoBRET screen HiBiT-P2RY2 in HEK293
T1 construct: purchased Promega (in-house HiBiT-GPCR construct library, NanoBRET)
Experimental: (§1) Each tracer candidate was screened across the entire library of HiBiT-GPCR constructs using NanoBRET as the detection modality. As depicted in Figure 4A, the specificity of interactions was evaluated through decrease in BRET due to competitive displacement of a bound tracer by excess parental compound. Each tracer was analyzed for binding to each HiBiT-GPCR fusion in the absence and in the presence of competing parental compound. Briefly, HEK293 cells were transfected with HiBiT-GPCR constructs diluted into promoterless DNA to reduce expression and maximize translocation to the cell surface. Each tracer candidate was then screened at concentrations of 1 μM and 0.1 μM across cells expressing these fusions. Cells were treated for 1.5 h with tracer either alone or in the presence of 20 μM competing parental compound (i.e., control). BRET was measured upon addition of purified LgBiT and subsequent complementation with HiBiT genetically fused to a GPCR. The specificity of interactions was assessed through a decrease in BRET signal due to competitive displacement of the bound tracer. To further gauge the robustness of these interactions, the fold response over the control (i.e., BRETtracer/BRETcontrol) was calculated. We chose a 1.5-fold response, which translates to ≥7-fold signal over noise as the minimal threshold required to score an interaction as positive. […]. Below we highlight the screening results obtained for our exemplary fluorescent tracers based on Clozapine, Amitriptyline and AZD1283.
(§2) HiBiT-GPCR DNA constructs were diluted in 10 mM Tris pH 8 to a final concentration of 0.01 μg/μL, arrayed in 96-well plates and stored at −20 °C. For transfection, HEK293 cells were suspended in Opti-MEM (without phenol red) supplemented with 2% fetal bovine serum (Seradigm) and 100 units/mL penicillin–streptomycin (Gibco) at a final concentration of 220,000 cells/mL and dispensed into white 96-well plates at 90 μL/well. Subsequent transfections and screens were carried using an Agilent Bravo Automated Liquid Handling Platform. First, the 96-well HiBiT DNA arrays were diluted 25-fold in Opti-MEM (without serum or phenol red) to a final concentration of 0.0004 μg/μL and 20 μL of the diluted DNAs were transferred into new 96-well plates. Next, promoterless carrier DNA (1 μg/μL) was diluted 25-fold (0.04 μg/μL) and then dispensed into the diluted arrays at 20 μL/well. Following brief mixing, Viafect transfection reagent (Promega) diluted 16-fold into Opti-MEM was dispensed into the plates at 40 μL/well. After mixing by pipetting, plates were incubated for 10 min on the pipetting station deck. The DNA-transfection reagent complexes were then added to plates containing cells. To facilitate the screen, 10 μL of DNA-transfection reagent complexes were added in duplicates to the top 4 and bottom 4 rows, resulting in two identical 48-well arrays per plate. Plates with transfected cells were incubated for 18–20 h at 37 °C/5% CO2. A screen of each tracer across the entire library using two different concentrations requires duplicate plates of transfected cells. Depending on the number of tracers being screened, transfections can be scaled up using the same ratios. The next day, for each tracer, four 20× screening solutions in tracer dilution buffer (Promega) were prepared: two duplicates at final concentration of 20 μM and two duplicates at a final concentration of 2 μM. A competing unmodified compound was added to one of each duplicate at a final concentration of 400 μM. The four resulting solutions were diluted 4-fold in Opti-MEM without serum or phenol red to generate 5× solutions (5 µM and 0.5 µM tracer +/− 100 μM competing compound). To screen the library, a BioTek MultiFlo FX liquid dispenser was used to dispense 22.5 µL of tracer solution to the top 4 rows and 22.5 µL tracer + competing compound solution to the 4 bottom rows. Plates were briefly mixed on an orbital shaker and incubated for 1.5 h at room temperature. […]

[2] = molecular target: T2, HCRTR2 (Homo sapiens, UniProt O43614); assay: NanoBRET screen HiBiT-HCRTR2 in HEK293
T2 construct: purchased Promega (in-house HiBiT-GPCR construct library, NanoBRET)
T2 sequence (O43614 1-444): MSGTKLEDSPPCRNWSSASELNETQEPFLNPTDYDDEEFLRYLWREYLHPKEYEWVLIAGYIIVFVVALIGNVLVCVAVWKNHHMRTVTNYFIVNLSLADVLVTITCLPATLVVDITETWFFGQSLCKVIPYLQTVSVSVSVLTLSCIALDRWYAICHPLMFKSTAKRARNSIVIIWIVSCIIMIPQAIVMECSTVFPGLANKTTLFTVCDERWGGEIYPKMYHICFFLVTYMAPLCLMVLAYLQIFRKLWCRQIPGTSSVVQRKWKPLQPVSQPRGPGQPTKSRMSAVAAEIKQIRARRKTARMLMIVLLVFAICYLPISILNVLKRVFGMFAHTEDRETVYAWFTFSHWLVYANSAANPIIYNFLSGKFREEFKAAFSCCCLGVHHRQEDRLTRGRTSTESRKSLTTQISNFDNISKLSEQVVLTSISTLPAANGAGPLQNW
Experimental: as §1, §2

[3] = molecular target: T3, HTR5A (Homo sapiens, UniProt P47898); assay: NanoBRET screen HiBiT-HTR5A in HEK293
T3 construct: purchased Promega (in-house HiBiT-GPCR construct library, NanoBRET)
T3 sequence (P47898 whole entry): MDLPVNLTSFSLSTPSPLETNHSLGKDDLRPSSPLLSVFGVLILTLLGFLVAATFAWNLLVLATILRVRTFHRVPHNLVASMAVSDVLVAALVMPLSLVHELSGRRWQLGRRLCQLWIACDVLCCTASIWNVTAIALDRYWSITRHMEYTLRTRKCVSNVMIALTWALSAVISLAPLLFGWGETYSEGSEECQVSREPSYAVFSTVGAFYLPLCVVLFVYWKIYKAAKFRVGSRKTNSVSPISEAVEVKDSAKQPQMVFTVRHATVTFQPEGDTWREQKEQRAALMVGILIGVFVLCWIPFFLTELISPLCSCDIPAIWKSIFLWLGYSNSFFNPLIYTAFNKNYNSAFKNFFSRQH
Experimental: as §1, §2

[4] = molecular target: T4, CCR1 (Homo sapiens, UniProt P32246); assay: NanoBRET screen HiBiT-CCR1 in HEK293
T4 construct: purchased Promega (in-house HiBiT-GPCR construct library, NanoBRET)
T4 sequence (P32246 1-355): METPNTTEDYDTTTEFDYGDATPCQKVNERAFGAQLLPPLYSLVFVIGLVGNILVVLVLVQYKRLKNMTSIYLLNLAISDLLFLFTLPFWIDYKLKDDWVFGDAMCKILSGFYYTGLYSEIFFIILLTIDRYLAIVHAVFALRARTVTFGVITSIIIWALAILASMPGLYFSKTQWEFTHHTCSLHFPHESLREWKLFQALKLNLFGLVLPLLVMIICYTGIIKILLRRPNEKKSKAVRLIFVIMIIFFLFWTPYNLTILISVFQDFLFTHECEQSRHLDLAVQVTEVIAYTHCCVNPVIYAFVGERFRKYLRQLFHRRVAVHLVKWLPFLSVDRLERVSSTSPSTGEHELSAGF
Experimental: as §1, §2

[5] = molecular target: T5, F2RL1 (Homo sapiens, UniProt P55085); assay: NanoBRET screen HiBiT-F2RL1 in HEK293
T5 construct: purchased Promega (in-house HiBiT-GPCR construct library, NanoBRET)
T5 sequence (P55085 26-397): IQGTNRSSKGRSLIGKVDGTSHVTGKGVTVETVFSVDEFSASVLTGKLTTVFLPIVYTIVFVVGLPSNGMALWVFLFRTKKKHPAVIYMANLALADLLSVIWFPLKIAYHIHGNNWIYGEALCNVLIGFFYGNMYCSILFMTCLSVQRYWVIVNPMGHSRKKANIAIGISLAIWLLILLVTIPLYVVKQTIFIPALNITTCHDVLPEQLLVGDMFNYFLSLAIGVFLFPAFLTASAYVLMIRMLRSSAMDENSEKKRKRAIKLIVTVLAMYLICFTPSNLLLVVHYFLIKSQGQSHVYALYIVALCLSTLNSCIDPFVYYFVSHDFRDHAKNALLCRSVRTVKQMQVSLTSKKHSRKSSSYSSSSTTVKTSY
Experimental: as §1, §2

T1 sequence (P41231 whole entry): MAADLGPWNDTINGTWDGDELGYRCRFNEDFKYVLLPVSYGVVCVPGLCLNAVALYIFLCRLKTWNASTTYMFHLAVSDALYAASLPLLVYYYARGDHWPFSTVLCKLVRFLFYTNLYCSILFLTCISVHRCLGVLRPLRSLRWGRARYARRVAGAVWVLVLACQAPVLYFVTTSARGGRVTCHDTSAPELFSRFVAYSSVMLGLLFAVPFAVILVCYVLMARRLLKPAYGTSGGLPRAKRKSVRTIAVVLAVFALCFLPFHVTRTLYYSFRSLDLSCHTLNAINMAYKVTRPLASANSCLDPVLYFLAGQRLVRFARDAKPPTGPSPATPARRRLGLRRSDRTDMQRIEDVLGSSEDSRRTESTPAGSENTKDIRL

SMILES: CN(C)CCC=C1c2ccccc2CCc2ccc(C(=O)NCCNC(=O)CCOCCOCCOCCOCCNC(=O)CCc3ccc4n3[B-](F)(F)[N+]3=C(c5ccc[nH]5)C=CC3=C4)cc21 [Amitriptyline-a-2-NB590]
NanoBRET Fold Response ([1]; tracer at 0.1μM): 1.00 | NanoBRET Fold Response ([1]; tracer at 1μM): 1.05 | NanoBRET Fold Response ([2]; tracer at 0.1μM): 1.05 | NanoBRET Fold Response ([2]; tracer at 1μM): 1.08 | NanoBRET Fold Response ([3]; tracer at 0.1μM): 1.08 | NanoBRET Fold Response ([4]; tracer at 0.1μM): 0.99 | NanoBRET Fold Response ([4]; tracer at 1μM): 1.07 | NanoBRET Fold Response ([5]; tracer at 0.1μM): 1.01 | NanoBRET Fold Response ([5]; tracer at 1μM): 1.07

SMILES: O=C(CCc1ccc2n1[B-](F)(F)[N+]1=C(c3ccc[nH]3)C=CC1=C2)NCCOCCOCCNC(=O)OCCOCCN1CCN(C2=Nc3ccccc3Sc3ccccc32)CC1 [Quetiapine-a-2-NB590]
NanoBRET Fold Response ([1]; P2RY2, tracer 0.1μM): 1.07 | NanoBRET Fold Response ([1]; P2RY2, tracer 1μM): 0.95 | NanoBRET Fold Response ([2]; HCRTR2, tracer 0.1μM): 1.01 | NanoBRET Fold Response ([2]; HCRTR2, tracer 1μM): 0.84 | NanoBRET Fold Response ([3]; HTR5A, tracer 0.1μM): 0.96 | NanoBRET Fold Response ([3]; HTR5A, tracer 1μM): 0.99 | NanoBRET Fold Response ([4]; CCR1, tracer 0.1μM): 0.99 | NanoBRET Fold Response ([4]; CCR1, tracer 1μM): 0.99 | NanoBRET Fold Response ([5]; F2RL1, tracer 0.1μM): 0.88 | NanoBRET Fold Response ([5]; F2RL1, tracer 1μM): 0.71

SMILES: CN1CCN(C2=Nc3cc(Cl)ccc3N(CC(=O)NCCOCCOCCOCCOCCNC(=O)CCc3ccc4n3[B-](F)(F)[N+]3=C(c5ccc[nH]5)C=CC3=C4)c3ccccc32)CC1 [Clozapine-c-2-NB590]
NanoBRET Fold Response ([1]; P2RY2, 0.1μM tracer): 0.99 | NanoBRET Fold Response ([1]; P2RY2, 1μM tracer): 0.84 | NanoBRET Fold Response ([2]; HCRTR2, 0.1μM tracer): 0.97 | NanoBRET Fold Response ([2]; HCRTR2, 1μM tracer): 1.04 | NanoBRET Fold Response ([3]; HTR5A, 0.1μM tracer): 1.02 | NanoBRET Fold Response ([3]; HTR5A, 1μM tracer): 1.00 | NanoBRET Fold Response ([4]; CCR1, 0.1μM tracer): 1.05 | NanoBRET Fold Response ([4]; CCR1, 1μM tracer): 0.98 | NanoBRET Fold Response ([5]; F2RL1, 0.1μM tracer): 0.97 | NanoBRET Fold Response ([5]; F2RL1, 1μM tracer): 1.00

NanoBRET Fold Response ([1]; 0.1μM tracer): 1.06 | NanoBRET Fold Response ([1]; 1μM tracer): 1.09 | NanoBRET Fold Response ([2]; 0.1μM tracer): 1.02 | NanoBRET Fold Response ([2]; 1μM tracer): 1.08 | NanoBRET Fold Response ([3]; 0.1μM tracer): 1.02 | NanoBRET Fold Response ([3]; 1μM tracer): 0.84 | NanoBRET Fold Response ([4]; 0.1μM tracer): 1.12 | NanoBRET Fold Response ([4]; 1μM tracer): 1.21 | NanoBRET Fold Response ([5]; 0.1μM tracer): 0.95 | NanoBRET Fold Response ([5]; 1μM tracer): 0.83
SMILES: COc1ccc2[nH]c(-c3ccc(CNC(=O)CCOCCOCCOCCOCCNC(=O)CCc4ccc5n4[B-](F)(F)[N+]4=C(c6ccc[nH]6)C=CC4=C5)cc3)c(CCNC(C)=O)c2n1 [AzomelatoninICO9-2-NB590]
